Results as given in DBAASP.
In brackets after ≈: the same amount, converted by molar mass. Several values for one entry are separate records, joined by “and”; a condition that tells them apart may be missing. Equal entries are not always repeated. One block for each compound: values may come before it.

Legend:
Assay in all cases: ≥ marks a high value that may be exact or a test limit, other limits are often not marked, values filed in µg/mL are converted to µM
[1] = tested on: Staphylococcus aureus ATCC 29213
[2] = tested on: Salmonella enterica subsp. enterica serovar Typhimurium ATCC 14028
[3] = tested on: Escherichia coli ATCC 25922
[4] = tested on: Staphylococcus aureus ATCC 25923
Escherichia coli K99 = tested on: Escherichia coli K99
Escherichia coli UB1005 = tested on: Escherichia coli UB1005
[5] = tested on: Lacticaseibacillus rhamnosus 7469
[6] = tested on: Staphylococcus aureus ATCC 43300
[7] = tested on: Salmonella enterica subsp. enterica serovar Typhimurium C77-31
[8] = tested on: Pseudomonas aeruginosa ATCC 27853
[9] = tested on: Lacticaseibacillus rhamnosus 1.0385
Escherichia coli K88 = tested on: Escherichia coli K88
[10] = tested on: Lacticaseibacillus rhamnosus 1.0936
[11] = tested on: Salmonella enterica subsp. enterica serovar Pullorum C79-13
[12] = tested on: Lacticaseibacillus rhamnosus 1.0911
[13] = tested on: Lactiplantibacillus plantarum 8014
[14] = tested on: Bacillus subtilis ATCC 6633
[15] = tested on: Staphylococcus aureus ATCC 33592
[16] = tested on: Staphylococcus aureus ATCC 700699
[17] = tested on: Candida albicans ATCC 10231
[18] = tested on: Candida parapsilosis ATCC 22019
[19] = tested on: Klebsiella pneumoniae ATCC 27736
[20] = tested on: Escherichia coli ATCC 9637
Cryptococcus neoformans = tested on: Cryptococcus neoformans
[21] = tested on: Pseudomonas aeruginosa ATCC BAA-427
[22] = tested on: Staphylococcus aureus ATCC BAA-44
[23] = tested on: Staphylococcus aureus ATCC 700698
[24] = tested on: Staphylococcus aureus ATCC BAA-2312
[25] = tested on: Klebsiella pneumoniae ATCC BAA-2814
[26] = tested on: Enterococcus faecalis ATCC 51299
Bacillus megaterium Bm11 = tested on: Bacillus megaterium Bm11
[27] = tested on: Acinetobacter baumannii ATCC 19606
[28] = tested on: Staphylococcus epidermidis ATCC 12228
[29] = tested on: Escherichia coli ATCC 35218
[30] = tested on: Enterococcus faecium ATCC 19434
[31] = tested on: Staphylococcus aureus ATCC 12600
[32] = tested on: Klebsiella pneumoniae ATCC 49472
[33] = tested on: Staphylococcus aureus NRS 17
[34] = tested on: Klebsiella pneumoniae ATCC 700603
[35] = tested on: Staphylococcus aureus NRS 1
[36] = tested on: Staphylococcus aureus VRSA1
[37] = tested on: Streptococcus pneumoniae ATCC 700677
[38] = tested on: Klebsiella pneumoniae ATCC BAA-2146
[39] = tested on: Pseudomonas aeruginosa FADDI-PA070
[40] = tested on: Staphylococcus aureus VRSA10
Escherichia coli = tested on: Escherichia coli
[41] = tested on: Staphylococcus aureus ATCC BAA-1683
Escherichia coli TOP 10 = tested on: Escherichia coli TOP 10

MIC [1]: > 64 µM
MIC [2]: > 64 µM
MIC [3]: > 64 µM
MIC [4]: > 64 µM
MIC (Escherichia coli K99): ≥ 64 µM
MIC (Escherichia coli UB1005): ≥ 64 µM
MIC [5]: ≥ 64 µM
MIC [6]: > 64 µM
MIC [7]: ≥ 64 µM
MIC [8]: > 64 µM
MIC [9]: ≥ 64 µM
MIC (Escherichia coli K88): ≥ 64 µM
MIC [10]: ≥ 64 µM
MIC [11]: ≥ 64 µM
MIC [12]: ≥ 64 µM
Structure (SMILES): C[C@@H]1NC(=O)[C@@H](N)CSSC[C@@H](C(=O)O)NC(=O)[C@H](Cc2ccccc2)NC(=O)[C@H](Cc2ccc(O)cc2)NC(=O)[C@H](CO)NC1=O [CASYFC]
MIC [13]: ≥ 64 µM

MIC [1]: > 30 µM
MIC [14]: 15.2 µM (≈ 24.6 µg/mL)
MIC [4]: 25 µM and 30 µM and 15.4 µM
MIC [15]: 30 µM (≈ 48.6 µg/mL)
MIC [16]: 30 µM (≈ 48.6 µg/mL)
MIC [17]: 30 µM (≈ 48.6 µg/mL)
MIC [18]: 30 µM (≈ 48.6 µg/mL)
MIC [19]: 15 µM (≈ 24.3 µg/mL)
MIC [20]: 12.5 µM (≈ 20.3 µg/mL)
MIC (Cryptococcus neoformans): 15 µM (≈ 24.3 µg/mL)
MIC [21]: 15 µM (≈ 24.3 µg/mL)
MIC [22]: 30 µM (≈ 48.6 µg/mL)
MIC [23]: 30 µM (≈ 48.6 µg/mL)
Structure (SMILES): CC[C@H](C)[C@H](NC(=O)[C@H](CCCN=C(N)N)NC(=O)CNC(=O)[C@H](CC(C)C)NC(=O)[C@H](CCCCN)NC(=O)[C@H](CCCCN)NC(=O)[C@H](CO)NC(=O)[C@H](Cc1ccccc1)NC(=O)[C@H](Cc1c[nH]c2ccccc12)NC(=O)[C@H](CCCCN)NC(=O)[C@@H](NC(=O)[C@@H](N)Cc1ccccc1)C(C)C)C(=O)N[C@@H](CC(C)C)C(N)=O [FVKWFSKKLGRIL]

MIC [24]: 31.2 µM (≈ 60.8 µg/mL)
MIC [2]: 62.5 µM (≈ 122 µg/mL)
MIC [25]: ≥ 62.5 µM
MIC [3]: 6.25 µM (≈ 12.2 µg/mL)
MIC [4]: 12.5 µM (≈ 24.3 µg/mL)
MIC [26]: ≥ 250 µM
MIC (Bacillus megaterium Bm11): 0.78 µM (≈ 1.52 µg/mL)
MIC [27]: 6.25 µM (≈ 12.2 µg/mL)
MIC [28]: 6.25 µM (≈ 12.2 µg/mL)
MIC [8]: 62.5 µM (≈ 122 µg/mL)
MIC [18]: 25 µM (≈ 48.6 µg/mL)
MIC [29]: 31.2 µM (≈ 60.8 µg/mL)
MIC [30]: ≥ 62.5 µM
MIC [31]: 31.2 µM (≈ 60.8 µg/mL)
MIC [32]: ≥ 62.5 µM
Structure (SMILES): CC[C@H](C)[C@H](NC(=O)CN)C(=O)N[C@@H](Cc1ccccc1)C(=O)N[C@@H](CC(=O)O)C(=O)N[C@H](C(=O)N[C@@H](CC(C)C)C(=O)N[C@@H](CCCCN)C(=O)N[C@@H](CC(N)=O)C(=O)N[C@@H](CC(C)C)C(=O)N[C@@H](C)C(=O)N[C@@H](CCCCN)C(=O)NCC(=O)N[C@H](C(=O)N[C@H](C(=O)N[C@H](C(=O)N[C@@H](CO)C(=O)N[C@@H](CC(C)C)C(=O)N[C@@H](C)C(=O)N[C@@H](CO)C(N)=O)[C@@H](C)O)[C@@H](C)CC)C(C)C)C(C)C [GIFDVLKNLAKGVITSLAS]

MIC [33]: 12.8 µM (≈ 40 µg/mL)
MIC [3]: 4.53 µM (≈ 14.1 µg/mL)
MIC [34]: 9.05 µM (≈ 28.3 µg/mL)
MIC [35]: 12.8 µM (≈ 40 µg/mL)
MIC [6]: > 12.8 µM
MIC [36]: 12.8 µM (≈ 40 µg/mL)
MIC [37]: 12.8 µM (≈ 40 µg/mL)
MIC [38]: 2.26 µM (≈ 7.06 µg/mL)
MIC [27]: 0.566 µM (≈ 1.77 µg/mL)
MIC [8]: > 12.8 µM
MIC [39]: 12.8 µM (≈ 40 µg/mL)
MIC [40]: 12.8 µM (≈ 40 µg/mL)
Structure (SMILES): CC[C@H](C)[C@H](N)C(=O)N[C@@H](CC(=O)O)C(=O)N[C@@H](Cc1c[nH]c2ccccc12)C(=O)N[C@@H](CCCCN)C(=O)N[C@@H](CCCCN)C(=O)N[C@H](C(=O)N[C@@H](CC(=O)O)C(=O)N[C@@H](Cc1c[nH]c2ccccc12)C(=O)N[C@@H](CCCCN)C(=O)N[C@@H](CCCCN)C(=O)N[C@H](C(=O)N[C@@H](CO)C(=O)N[C@@H](CCCCN)C(=O)N[C@@H](CCCCN)C(=O)N[C@H](C(=O)N[C@@H](CO)C(=O)N[C@@H](CCCCN)C(=O)N[C@H](C(=O)N[C@@H](CCSC)C(=O)N[C@@H](CC(C)C)C(=O)N[C@@H](CCCCN)C(=O)N[C@@H](C)C(=O)N[C@@H](CO)C(=O)N[C@@H](CCCCN)C(=O)N[C@@H](Cc1ccccc1)C(=O)N[C@@H](CC(C)C)C(N)=O)C(C)C)[C@@H](C)O)C(C)C)C(C)C [IDWKKVDWKKVSKKTSKVMLKASKFL]

MIC [4]: 351 µM (≈ 500 µg/mL)
MIC (Escherichia coli): 351 µM (≈ 500 µg/mL)
MIC [41]: ≥ 351 µM
Structure (SMILES): CC(C)C[C@H](NC(=O)[C@H](CC(C)C)NC(=O)[C@H](CCCN=C(N)N)NC(=O)[C@H](Cc1c[nH]c2ccccc12)NC(=O)[C@H](Cc1c[nH]c2ccccc12)NC(=O)[C@@H](N)CCCCN)C(=O)N[C@@H](Cc1cnc[nH]1)C(=O)N[C@@H](CCCCN)C(=O)N[C@@H](CCCCN)C(=O)N[C@@H](CCC(N)=O)C(N)=O [KWWRLLHKKQ]

MIC (Escherichia coli TOP 10): ≥ 57.6 µM
Structure (SMILES): CC[C@H](C)[C@H](NC(=O)[C@H](CCC(=O)O)NC(=O)[C@H](CCCCN)NC(=O)[C@H](CCC(=O)O)NC(=O)[C@@H](NC(=O)[C@H](CO)NC(=O)[C@H](CCC(N)=O)NC(=O)[C@@H](NC(=O)[C@@H]1CCCN1C(=O)[C@H](CC(=O)O)NC(=O)[C@H](C)NC(=O)[C@H](CCSC)NC(=O)[C@@H](NC(=O)[C@H](Cc1ccccc1)NC(=O)[C@@H](N)CC(C)C)[C@@H](C)O)[C@@H](C)CC)[C@@H](C)CC)C(N)=O [LFTMADPIQSIEKEI]
